This note sets out measurements from ChEMBL document CHEMBL1158784, “Sorbicillin analogues and related dimeric compounds from Penicillium notatum” (2005).

Assay [1] deals with Rhizomucor miehei. Nature of the assay: Antimicrobial activity against Mucor miehei at 20 ug/9 mm disk by agar diffusion method. It is filed as functional, organism-based.
For assay [2], the system named is Desmodesmus subspicatus. Nature of the assay: Antimicrobial activity against Scenedesmus subspicatus at 20 ug/9 mm disk by agar diffusion method. The class given is functional, organism-based. (In general: Agar diffusion results depend on both activity and mobility in agar.)
Assay [3] deals with Chlorella vulgaris. Nature of the assay: Antimicrobial activity against Chlorella vulgaris at 20 ug/9 mm disk by agar diffusion method. It is filed as functional, organism-based.
For assay [4], the system named is Escherichia coli. Nature of the assay: Antimicrobial activity against Escherichia coli at 20 ug/9 mm disk by agar diffusion method. It is filed as functional, organism-based.
For assay [5], the system named is Bacillus subtilis. As to the kind of experiment: Antimicrobial activity against Bacillus subtilis at 20 ug/9 mm disk by agar diffusion method. It is filed as functional.
Assay [6] has as its system Streptomyces viridochromogenes. As to the kind of experiment: Antimicrobial activity against Streptomyces viridochromogenes Tu57 at 20 ug/9 mm disk by agar diffusion method. The class given is functional, organism-based.
Assay [7] has as its system Candida albicans. Nature of the assay: Antimicrobial activity against Candida albicans at 20 ug/9 mm disk by agar diffusion method. It is filed as functional.
In assay [8] the test system is Chlorella sorokiniana. As to the kind of experiment: Antimicrobial activity against Chlorella sorokiniana at 20 ug/9 mm disk by agar diffusion method. The class given is functional, organism-based.
The subject of assay [9] is Staphylococcus aureus. As to the kind of experiment: Antimicrobial activity against Staphylococcus aureus at 20 ug/9 mm disk by agar diffusion method. The class given is functional.

Each structure is given as a SMILES string. Calls of active or inactive are those of the source. No cut-off for these calls is given here.

On to `CC(C)=CCC/C(C)=C/CC/C(C)=C/C[C@@]12O[C@@H]1[C@H](O)C(C)=CC2=O`, for which the result in [1], in assay [2], in assay [3], in assay [4], in assay [6] and in assay [8] was inactive. In addition, the “inhibition zone (IZ)” value in assay [5] is listed as 12 mm; in assay [7] it was 13 mm; in assay [9], 12 mm.
With `C/C=C/C=C/C(=O)C1=C[C@@]2(C)[C@H]3C(C(=O)/C=C/C=C/C)=C(O)C(C)=C(O)[C@@]3(C)O[C@@]2(O)[C@@](C)(O)C1=O`, the result in assay [1], in [2], in assay [3], in assay [4], in assay [5] and in [6] was inactive. Also, the result in [7], in assay [8] and in [9] was inactive.
Consider `C/C=C/C=C/C(=O)c1c(C)c(O)c(O)c(C)c1O` [SOHIRNONE B], for which the outcome in assay [1], in assay [2], in assay [3], in assay [4], in assay [6] and in assay [8] was inactive. Besides, the “inhibition zone (IZ)” value in assay [5] worked out at 12 mm; in assay [7], 13 mm; in [9], 12 mm.
For the compound `C/C=C/C=C/C(O)=C1\C(=O)[C@]2(C)C(=O)[C@@](C)(O)[C@H]1C[C@@H]2OCCCC` [REZISHANONE B], the result in assay [1], in assay [2], in assay [3], in [4], in assay [6] and in assay [8] was inactive. The “inhibition zone (IZ)” value is listed as 12 mm in assay [5], 13 mm in assay [7] and 12 mm in [9].
In the case of `C/C=C/C=C/C(=O)[C@]12C(=O)C(C)=C(O)[C@@](C)(O)[C@H]1[C@H]1\C(=C(O)/C=C/C=C/C)C(=O)[C@]2(C)C(=O)[C@@]1(C)O` [BISORBICILLINOL], the outcome in assay [1], in assay [2], in assay [3], in assay [4], in [6] and in assay [8] was inactive. The “inhibition zone (IZ)” value worked out at 12 mm in assay [5], 13 mm in [7] and 12 mm in assay [9].
In the case of `C/C=C/CCC(=O)c1cc(C)c(O)c(C)c1O`, the result in assay [1], in assay [2], in assay [3], in [4], in assay [6] and in assay [8] was inactive. The “inhibition zone (IZ)” value in [5] was determined as 12 mm; in assay [7], 13 mm; in assay [9], 12 mm.
Take `C/C=C/C=C/C(O)=C1/C(=O)[C@]2(C)C(=O)[C@@](C)(O)[C@H]1[C@H]1[C@]2(C(=O)CC/C=C/C)C(=O)C(C)=C(O)[C@@]1(C)O` [BISVERTINOQUINOL]: the result in [1], in assay [2], in assay [3], in assay [4], in [6] and in assay [8] was inactive. Moreover, the entries for the “inhibition zone (IZ)” value in assay [5], in assay [7] and in assay [9] were 12 mm, 13 mm and 12 mm, respectively.
As to `C/C=C/C=C/C(=O)C1=C(C)C(=O)C(O)=C(C)C1=O`, the result in assay [1], in [2], in assay [3], in assay [4], in assay [5] and in [6] was inactive. In addition, the outcome in assay [7], in [8] and in assay [9] was inactive.
On to `C/C=C/C=C/C(O)=C1\C(=O)[C@]2(C)C(=O)[C@@](C)(O)[C@H]1[C@H]1OC(=O)C[C@]12CO` [REZISHANONE A], for which the outcome in [1], in assay [2], in assay [3], in assay [4], in [6] and in assay [8] was inactive. Also, the “inhibition zone (IZ)” value in assay [5] amounted to 12 mm; in [7], 13 mm; in assay [9], 12 mm.
As for `C/C=C/C=C/C(O)=C1\C(=O)[C@]2(C)C(=O)[C@@](C)(O)[C@H]1C[C@@H]2OCC` [REZISHANONE C], the outcome in assay [1], in assay [2], in [3], in assay [4], in [6] and in assay [8] was inactive. Besides, the figures for the “inhibition zone (IZ)” value in assay [5], in [7] and in assay [9] were 12 mm, 13 mm and 12 mm, respectively.
Turning to `C/C=C/CC/C(O)=C1\C(=O)[C@]2(C)C(=O)[C@@](C)(O)[C@H]1C[C@@H]2OCC` [REZISHANONE D], the outcome in [1], in assay [2], in assay [3], in assay [4], in [6] and in assay [8] was inactive. Besides, the results for the “inhibition zone (IZ)” value in assay [5], in assay [7] and in [9] were 12 mm, 13 mm and 12 mm, respectively.
Consider `C/C=C/C=C/C(O)=C1\C(=O)C(C)=C(O)[C@@](C)(O)C1=O`, for which the outcome in [1], in assay [2], in assay [3], in assay [4], in [5] and in [6] was inactive. Further, the outcome in assay [7], in assay [8] and in assay [9] was inactive.
Turning to `C/C=C/CCC(=O)c1cc(C)c(O)cc1O` [SOHIRNONE A], the outcome in [1], in assay [2], in assay [3], in assay [4], in assay [6] and in assay [8] was inactive. The figures for the “inhibition zone (IZ)” value in assay [5], in assay [7] and in assay [9] were 12 mm, 13 mm and 12 mm, respectively.
Take `C/C=C/CCC(=O)c1c(C)c(O)c(O)c(C)c1O`: the outcome in assay [1], in assay [2], in assay [3], in [4], in [5] and in assay [6] was inactive. The result in assay [7], in assay [8] and in assay [9] was inactive.
With `C/C=C/C=C/C(O)=C1/C(=O)[C@](C)(O)C(=O)C(C)=C1O`, the result in [1], in [2], in assay [3], in [4], in assay [6] and in [8] was inactive. Further, the “inhibition zone (IZ)” value in assay [5] came to 12 mm; in assay [7], 13 mm; in assay [9] it was 12 mm.
